These results are taken from patent US11753447B2, “Cyclic peptides, methods of synthesis, and methods of treatment” (priority 2020, dated 2023).

As usually defined, the IC50 is the concentration that gives 50% inhibition.

In one series the test system is SARS-CoV-2. The note with it: cell-based studies; cited from earlier work.
Series [1] deals with T1, SARS-CoV-2 M^pro (Severe acute respiratory syndrome coronavirus 2, UniProt P0DTD1).
T1 construct: purchased Life Sensors
The experiment in a line: biochemical. The note with it: 0.1 μM M^pro, 50 μM fluorogenic substrate, 30 min pre-incubation, 37° C., non-linear regression of initial rates; read-out: IC50 against M^pro.

For series [2], the target named is T1, SARS-CoV-2 M^pro. The experiment in a line: LC/MS analysis of enzyme inhibition assay well solution for cleavage of UCI-1 by M^pro. In kind it is biochemical. The settings on record: 187.5 μM UCI-1 well solution after 4 hours, compared with peptide-1c spike.
The next series relates to HEK-293 cells. The settings on record: 72 hours.

Numbered stars: 1 amine (or outer) side, 2 acyl side, 3 side chain; on linkers, the order of the positions; unused ones are H or OH. Square brackets hold non-standard residues; d marks the D form. Peptide text beside a SMILES is read from it. X1 = O=C(Cc1ccc(CCN[*:1])cc1)[*:2]

With `Cc1cc(C(=O)NC(C)C(=O)NC(C(=O)NC(CC(C)C)C(=O)NC(C=CC(=O)OCc2ccccc2)CC2CCNC2=O)C(C)C)no1` (centres unmarked) [N3], in the series on SARS-CoV-2, the SARS-CoV-2 replication entry is “block SARS-CoV-2 replication”.
As to `NCCCC[C@@H]1NC(=O)[C@H](CO)NC(=O)[C@H](CCC(N)=O)NC(=O)[C@H](Cc2ccccc2)NC(=O)Cc2ccc(cc2)CCNC1=O` [UCI-1] (cyclo(FQSK[X1])), the concentration for half-maximal inhibition (IC50) on SARS-CoV-2 M^pro [1] was about 160 µM. Besides, on SARS-CoV-2 M^pro [2], the “cleavage by M^pro” value was “not appreciably cleaved”. In the series on HEK-293 cells (concentrations up to 256 μM, HEK-293), the cytotoxicity result was “not cytotoxic”. In addition, the “LDH release from HEK-293 cells” value in the series on HEK-293 cells (highest concentration evaluated (256 μM)) was “little or no LDH release”.
As for `CC(C)(C)OC(=O)Nc1cccn([C@@H](CC2CC2)C(=O)N[C@@H](C[C@@H]2CCNC2=O)C(=O)C(=O)NCc2ccccc2)c1=O` [13b], the SARS-CoV-2 replication entry in the series with SARS-CoV-2 is listed as “block SARS-CoV-2 replication”.
For `O=C[C@H](C[C@@H]1CCNC1=O)NC(=O)[C@H](CC1CCCCC1)NC(=O)c1cc2ccccc2[nH]1` [11a], in the series with SARS-CoV-2, the SARS-CoV-2 replication entry is “block SARS-CoV-2 replication”.
Consider `O=C[C@H](C[C@@H]1CCNC1=O)NC(=O)[C@H](Cc1cccc(F)c1)NC(=O)c1cc2ccccc2[nH]1` [11b], for which the SARS-CoV-2 replication result in the series with SARS-CoV-2 is given as “block SARS-CoV-2 replication”.
